Test system: endogenous BMP-2
Assay: CRISPR activation of endogenous BMP-2, qPCR in transfected HEK-293T cells
Format: cell-based, human
Conditions: qPCR 24 hours after transfection with constitutively-expressed dCas9-VPR, normalized to HPRT
Procedure: HEK-293T cells were transfected with constitutively-expressed dCas9-VPR (Addgene #63798) and gRNA-expressing plasmids (Addgene #41824, sequences targeting the 150 bp region of the transcription start site of the endogenous BMP-2 was cloned into the vector; gRNA2 seq: […], gRNA3 seq: […], GFP seq:). After 24 hours, BMP-2 induction was measured by qPCR, following manufacturer protocols. Groups of HEK-293T cells tested were: Untransfected (UT), dCas9-VPR (VPR), GFP, gRNA2, and gRNA3. All groups were normalized to Hypoxanthine-guanine phosphoribosyltransferase (HPRT) expression (FIG. 27). Untransfected, dCas9-VPR, gRNA2, and gRNA3 groups were compared to GFP to elucidate increase in expression levels (FIG. 28).

Substance | induction of endogenous BMP-2 expression compared to GFP group [fold]
gRNA3: gRNA-expressing plasmid targeting the 150 bp region of the transcription start site of endogenous BMP-2; seq GCTCGCCGGGGATCCCCGAG (expressed from plasmid) | 77
gRNA2: gRNA-expressing plasmid targeting the 150 bp region of the transcription start site of endogenous BMP-2; seq GGCGAGCCGCGCCGCGAAGG (expressed from plasmid) | 112

— US20210047653A1, “COMPOSITIONS AND METHODS FOR REGULATING A BIOLOGICAL PROCESS” (The University of Memphis Research Foundation, priority 2018, published 2021)
